Laboratory results taken from publication PMC10011554, “BET inhibitor trotabresib in heavily pretreated patients with solid tumors and diffuse large B-cell lymphomas” (Nature Communications, 2023).

Experiment: Adverse events, DLTs, MTD and RP2D in phase I study CC-90010-ST-001 (NCI CTCAE v4.03)
Type: in vivo
Method: The primary endpoints of the study were the safety and tolerability of trotabresib, as well as the MTD and/or RP2D of trotabresib. Safety was assessed using the National Cancer Institute Common Terminology Criteria for Adverse Events v4.03[53].
The decision to evaluate additional subjects within a dose cohort, a higher dose cohort, intermediate dose cohorts, smaller dose increments, alternate dosing schedules, or declare an MTD will also be determined by the SRC, based on their review of clinical and laboratory safety […]
7.2.4. Definition of a Subject Evaluable for DLT
After the first dose is administered in any cohort during dose escalation, subjects in each cohort […]
more than one subject per day will be enrolled in a given dose escalation cohort.
A subject evaluable for DLT is defined as one that: […]
without experiencing a DLT,
Subjects non-evaluable for DLT will be replaced. Additional subjects within any dose cohort may be enrolled at the discretion of the SRC. Intra-subject dose escalation will not be allowed during the DLT assessment period.
7.2.5. Definition of Maximum Tolerated Dose (MTD) […]
of MTD is described in Section 7.2.2.
A variable dose cohort (eg, less frequent dosing) may be evaluated to accurately determine the MTD at the discretion of the SRC.
7.2.6. Definition of Dose-Limiting Toxicity (DLT) […]
used as a guide for the grading of severity of adverse events. A DLT is defined as any of the following toxicities occurring within the DLT assessment unless the event can clearly be […]
Do se-limiting toxicities are described below:
• Hyperglycemia meeting any of the following criteria:
− Grade 3 or greater fasting hyperglycemia (> 250 mg/dL) lasting > 4 days despite optimal medical treatment
(1 picture or pasted object on this page, not shown here)
− Hyperglycemia associated with diabetic ketoacidosis or nonketotic hyperosmolar coma regardless of glucose level
− Hyperglycemia that necessitates dose reduction despite dose interruption and resolution to ≤ grade 1 hyperglycemia within two weeks as described in […]
• Any Grade 4 non-hematologic toxicity of any duration
• Any non-hematologic toxicity Grade ≥ 3 EXCEPT for:
− Grade 3 diarrhea, nausea, or vomiting of ≤ 3 days duration (with optimal medical […]
− Grade 3 rash of the acneiform, pustular or maculopapular type which resolves to […]
level with resumption of study drug at the same dose (with optimal medical […]
− Grade 3 fatigue which resolves to Grade ≤ 2 within 7 days of study drug […]
the same dose (with optimal medical management).
• Hematological toxicities as follows:
− Grade 4 neutropenia lasting > 7 days
− Grade 4 thrombocytopenia lasting > 7 days, Grade ≥ 3 thrombocytopenia with clinically significant bleeding
• Any AE, Grade ≥ 2 not specified or exempt above, unless clearly determined to be unrelated to the drug, necessitating dose-level reduction during Cycle 1.
Isolated laboratory changes without associated clinical signs or symptoms (eg, hypomagnesemia, hypermagnesemia, hypoalbuminemia, hypophosphatemia, lymphocyte count increased or decreased) may not be included in this definition. These findings will be discussed and reviewed […]
7.2.7. Criteria for Dose Escalation in the Next Cohort of Subjects
During Part A, the dose escalation criteria are described in Section 7.2.2.
7.2.8. Definition of Stopping Criteria
During Part A, the dose escalation stopping rules are in Section 7.2.2.
7.2.9. Permitted Study Drug Adjustments
Dose reductions are permitted in any cycle, including Cycle 1.
• Dose reductions that occur in Cycle 1 during dose escalation will constitute DLT as […]

[1] = part B (12 subjects), 02 Dec 2019 cutoff
[2] = part C, cycles 1 and 2, fasted state (n = 39)
[3] = part C, cycles 1 and 2, fed state (n = 35)

Cn1cc(-c2cc(S(C)(=O)=O)ccc2OCC2CC2)c2ccccc2c1=O [trotabresib]
TRAE: Hyperglycemia (part A, grade 3): 1.45%
TRAE: Hypertension (part A, grade 3): 0%
TRAE: Hyponatremia (part A, grade 3): 1.45%
TRAE: Hypophosphatemia (part A, grade 3): 1.45%
TRAE: Nausea (part A, grade 3): 0%
TRAE: Neutropenia (part A, grade 3): 1.45%
TRAE: Platelet count decreased (part A, grade 3): 1.45%
TRAE: Stomatitis (part A, grade 3): 0%
TRAE: Thrombocytopenia (part A, grade 3): 10.14%
TRAE: Vomiting (part A, grade 3): 0%
TRAE: ALT increased (part A, grade 4): 0%
TRAE: Anemia (part A, grade 4): 0%
TRAE: Any TRAE (part A, grade 4): 7.25%
TRAE: Asthenia (part A, grade 4): 0%
TRAE: Decreased appetite (part A, grade 4): 0%
TRAE: Dehydration (part A, grade 4): 0%
TRAE: Dermatitis acneiform (part A, grade 4): 0%
TRAE: Diarrhoea (part A, grade 4): 0%
TRAE: Dysgeusia (part A, grade 4): 0%
TRAE: Fatigue (part A, grade 4): 0%
TRAE: Hyperglycemia (part A, grade 4): 0%
TRAE: Hypertension (part A, grade 4): 0%
TRAE: Hyponatremia (part A, grade 4): 1.45%
TRAE: Hypophosphatemia (part A, grade 4): 0%
TRAE: Nausea (part A, grade 4): 0%
TRAE: Neutropenia (part A, grade 4): 0%
TRAE: Platelet count decreased (part A, grade 4): 1.45%
TRAE: Stomatitis (part A, grade 4): 0%
TRAE: Thrombocytopenia (part A, grade 4): 2.9%
TRAE: Vomiting (part A, grade 4): 0%
Grade 3 hyperglycemia, treatment-related [1]: 8.3%
Grade 4 hyperglycemia, treatment-related [1]: 8.3%
TEAE anemia [1]: 66.7%
TEAE thrombocytopenia [1]: 58.3%
hyperglycemia [1]: 33.3%
subjects with at least one TEAE [1]: 83.3%
TRAE: ALT increased (part B DLBCL, any grade): 8.7%
TRAE: Anemia (part B DLBCL, any grade): 43.48%
TRAE: Any TRAE (part B DLBCL, any grade): 100%
TRAE: Asthenia (part B DLBCL, any grade): 21.74%
TRAE: Decreased appetite (part B DLBCL, any grade): 21.74%
TRAE: Dehydration (part B DLBCL, any grade): 13.04%
TRAE: Dermatitis acneiform (part B DLBCL, any grade): 0%
TRAE: Diarrhoea (part B DLBCL, any grade): 52.17%
TRAE: Dysgeusia (part B DLBCL, any grade): 8.7%
TRAE: Fatigue (part B DLBCL, any grade): 0%
TRAE: Hyperglycemia (part B DLBCL, any grade): 39.13%
TRAE: Hypertension (part B DLBCL, any grade): 4.35%
TRAE: Hyponatremia (part B DLBCL, any grade): 8.7%
TRAE: Hypophosphatemia (part B DLBCL, any grade): 17.39%
TRAE: Nausea (part B DLBCL, any grade): 21.74%
TRAE: Neutropenia (part B DLBCL, any grade): 39.13%
TRAE: Platelet count decreased (part B DLBCL, any grade): 0%
TRAE: Stomatitis (part B DLBCL, any grade): 17.39%
TRAE: Thrombocytopenia (part B DLBCL, any grade): 91.3%
TRAE: Vomiting (part B DLBCL, any grade): 17.39%
TRAE: ALT increased (part B DLBCL, grade 3): 0%
TRAE: Anemia (part B DLBCL, grade 3): 26.09%
TRAE: Any TRAE (part B DLBCL, grade 3): 26.09%
TRAE: Asthenia (part B DLBCL, grade 3): 8.7%
TRAE: Decreased appetite (part B DLBCL, grade 3): 4.35%
TRAE: Dehydration (part B DLBCL, grade 3): 13.04%
TRAE: Dermatitis acneiform (part B DLBCL, grade 3): 0%
TRAE: Diarrhoea (part B DLBCL, grade 3): 0%
TRAE: Dysgeusia (part B DLBCL, grade 3): 0%
TRAE: Fatigue (part B DLBCL, grade 3): 0%
TRAE: Hyperglycemia (part B DLBCL, grade 3): 4.35%
TRAE: Hypertension (part B DLBCL, grade 3): 4.35%
TRAE: Hyponatremia (part B DLBCL, grade 3): 0%
TRAE: Hypophosphatemia (part B DLBCL, grade 3): 13.04%
TRAE: Nausea (part B DLBCL, grade 3): 4.35%
TRAE: Neutropenia (part B DLBCL, grade 3): 13.04%
TRAE: Platelet count decreased (part B DLBCL, grade 3): 0%
TRAE: Stomatitis (part B DLBCL, grade 3): 0%
TRAE: Thrombocytopenia (part B DLBCL, grade 3): 17.39%
TRAE: Vomiting (part B DLBCL, grade 3): 0%
TRAE: ALT increased (part B DLBCL, grade 4): 0%
TRAE: Anemia (part B DLBCL, grade 4): 0%
TRAE: Any TRAE (part B DLBCL, grade 4): 65.22%
TRAE: Asthenia (part B DLBCL, grade 4): 0%
TRAE: Decreased appetite (part B DLBCL, grade 4): 0%
TRAE: Dehydration (part B DLBCL, grade 4): 0%
TRAE: Dermatitis acneiform (part B DLBCL, grade 4): 0%
TRAE: Diarrhoea (part B DLBCL, grade 4): 0%
TRAE: Dysgeusia (part B DLBCL, grade 4): 0%
TRAE: Fatigue (part B DLBCL, grade 4): 0%
TRAE: Hyperglycemia (part B DLBCL, grade 4): 4.35%
TRAE: Hypertension (part B DLBCL, grade 4): 0%
TRAE: Hyponatremia (part B DLBCL, grade 4): 0%
TRAE: Hypophosphatemia (part B DLBCL, grade 4): 0%
TRAE: Nausea (part B DLBCL, grade 4): 0%
TRAE: Neutropenia (part B DLBCL, grade 4): 13.04%
TRAE: Platelet count decreased (part B DLBCL, grade 4): 0%
TRAE: Stomatitis (part B DLBCL, grade 4): 0%
TRAE: Thrombocytopenia (part B DLBCL, grade 4): 60.87%
TRAE: Vomiting (part B DLBCL, grade 4): 0%
grade 3/4 TRAE anemia (part B R/R DLBCL (N = 23)): 26%
grade 3/4 TRAE neutropenia (part B R/R DLBCL (N = 23)): 26%
grade 3/4 TRAE thrombocytopenia (part B R/R DLBCL (N = 23)): 78%
patients who died due to TEAEs not considered related to study treatment (part B R/R DLBCL (N = 23)): 9%
patients with any-grade TRAEs (part B R/R DLBCL (N = 23)): 100%
patients with grade 3/4 TRAEs (part B R/R DLBCL (N = 23)): 91%
patients with serious TRAEs (part B R/R DLBCL (N = 23)): 30%
further grade 3 and 4 TRAEs reported in one patient each (part B R/R DLBCL population): Grade 3 abdominal infection, blood bilirubin increased, pneumonia and grade 4 blood creatinine increased, febrile neutropenia, leukopenia, and lymphopenia
TEAE leading to death, not considered related (part C (N = 41)): one
grade 3/4 TRAE thrombocytopenia (part C (N = 41)): 17%
patients with any-grade TRAEs (part C (N = 41)): 98%
patients with grade 3/4 TRAEs (part C (N = 41)): 59%
further grade 3 TRAEs reported in one patient each (part C population): Grade 3 gamma-glutamyl transferase increased, hyperamylasemia, and syncope
TRAE: ALT increased (part C, any grade): 21.95%
TRAE: Anemia (part C, any grade): 12.2%
TRAE: Any TRAE (part C, any grade): 97.56%
TRAE: Asthenia (part C, any grade): 41.46%
TRAE: Decreased appetite (part C, any grade): 34.15%
TRAE: Dehydration (part C, any grade): 0%
TRAE: Dermatitis acneiform (part C, any grade): 17.07%
TRAE: Diarrhoea (part C, any grade): 60.98%
TRAE: Dysgeusia (part C, any grade): 53.66%
TRAE: Fatigue (part C, any grade): 26.83%
TRAE: Hyperglycemia (part C, any grade): 19.51%
TRAE: Hypertension (part C, any grade): 4.88%
TRAE: Hyponatremia (part C, any grade): 2.44%
TRAE: Hypophosphatemia (part C, any grade): 4.88%
TRAE: Nausea (part C, any grade): 60.98%
TRAE: Neutropenia (part C, any grade): 12.2%
TRAE: Platelet count decreased (part C, any grade): 0%
TRAE: Stomatitis (part C, any grade): 56.1%
TRAE: Thrombocytopenia (part C, any grade): 63.41%
TRAE: Vomiting (part C, any grade): 43.9%
patients with any-grade TRAEs [2]: 95%
patients with grade 3/4 TRAEs [2]: 33%
patients with any-grade TRAEs [3]: 91%
patients with grade 3/4 TRAEs [3]: 20%
TRAE: ALT increased (part C, grade 3): 2.44%
TRAE: Anemia (part C, grade 3): 0%
TRAE: Any TRAE (part C, grade 3): 56.1%
TRAE: Asthenia (part C, grade 3): 7.32%
TRAE: Decreased appetite (part C, grade 3): 0%
TRAE: Dehydration (part C, grade 3): 0%
TRAE: Dermatitis acneiform (part C, grade 3): 0%
TRAE: Diarrhoea (part C, grade 3): 4.88%
TRAE: Dysgeusia (part C, grade 3): 0%
TRAE: Fatigue (part C, grade 3): 7.32%
TRAE: Hyperglycemia (part C, grade 3): 4.88%
TRAE: Hypertension (part C, grade 3): 2.44%
TRAE: Hyponatremia (part C, grade 3): 2.44%
TRAE: Hypophosphatemia (part C, grade 3): 4.88%
TRAE: Nausea (part C, grade 3): 4.88%
TRAE: Neutropenia (part C, grade 3): 4.88%
TRAE: Platelet count decreased (part C, grade 3): 0%
TRAE: Stomatitis (part C, grade 3): 4.88%
TRAE: Thrombocytopenia (part C, grade 3): 14.63%
TRAE: Vomiting (part C, grade 3): 2.44%
TRAE: ALT increased (part C, grade 4): 0%
TRAE: Anemia (part C, grade 4): 0%
TRAE: Any TRAE (part C, grade 4): 2.44%
TRAE: Asthenia (part C, grade 4): 0%
TRAE: Decreased appetite (part C, grade 4): 0%
TRAE: Dehydration (part C, grade 4): 0%
TRAE: Dermatitis acneiform (part C, grade 4): 0%
TRAE: Diarrhoea (part C, grade 4): 0%
TRAE: Dysgeusia (part C, grade 4): 0%
TRAE: Fatigue (part C, grade 4): 0%
TRAE: Hyperglycemia (part C, grade 4): 0%
TRAE: Hypertension (part C, grade 4): 0%
TRAE: Hyponatremia (part C, grade 4): 0%
TRAE: Hypophosphatemia (part C, grade 4): 0%
TRAE: Nausea (part C, grade 4): 0%
TRAE: Neutropenia (part C, grade 4): 0%
TRAE: Platelet count decreased (part C, grade 4): 0%
TRAE: Stomatitis (part C, grade 4): 0%
TRAE: Thrombocytopenia (part C, grade 4): 2.44%
TRAE: Vomiting (part C, grade 4): 0%
grade 5 TRAEs (whole study): No grade 5 TRAEs were reported
